Experimental data from patent publication US12673945B2, “3-((8-((1H-pyrazol-4-yl)amino)imidazo[1,2-a]pyridin-3-yl)ethinyl)-n-phenylbenzamide derivative, method for preparing same, and pharmaceutical composition containing same as active ingredient for prevention or treatment of cancer” (DAEGU-GYEONGBUK MEDICAL INNOVATION FOUNDATION, priority 2020, dated 2026).

Columns and labels:
Format in all cases: cell-based
[1] = tested on: KOPM28 cells; test: human CML cell proliferation inhibition; conditions: 72 hours, Cell Counting Kit-8
Procedure: (§1) In order to evaluate the therapeutic effect of the compound according to the present invention on chronic myelogenous leukemia (CML), the following experiment was performed, and the results are shown in Table 6 below. Inhibitory activity to Bcr-Abl kinase was evaluated through the experiment using TCCS and KOPM28 cells, and inhibitory activity to T315I-Bcr-Abl kinase was evaluated through the experiment using T315I-TCCS and T315I-KOPM28 cells.
(§2) Human chronic myelogenous leukemia (CML) cells used in the experiment were TCCS, T315I-TCCS, KOPM28 and T315I-KOPM28, and the four types of cells were provided by University of Yamanashi.
(§3) Four types of human CML cells were each seeded in 96-well plates at the density of 1×10^4/90 μL/well. A culture solution containing 9 concentrations (0.000256 to 100 μM) of each example compound serially diluted in 5 folds or DMSO (control) were added to the plate (10 μL/well) to a final concentration of 0 to 10 μM. The plate was incubated in a 37° C. CO2 incubator for 72 hours.
(§4) After incubation for 72 hours, the plate treated with the compound was treated with Cell Counting Kit-8 (Dojindo Molecular Technologies, Inc) solution at the concentration of 10 μL/well, and then mixed well. Then, the plate was incubated in a CO2 incubator at 37° C. for 2 hours, and absorbance at 450 nm was measured with a microplate reader. Data were expressed as percentage compared to vehicle treated cells and GI50 values were calculated using GraphPad Prism 8.0 (GraphPad software Inc., San Diego).

[2] = tested on: T315I-KOPM28 cells; test: human CML cell proliferation inhibition; conditions: 72 hours, Cell Counting Kit-8
Procedure: as §1, §2, §3, §4

[3] = tested on: TCCS cells; test: human CML cell proliferation inhibition; conditions: 72 hours, Cell Counting Kit-8
Procedure: as §1, §2, §3, §4

[4] = tested on: T315I-TCCS cells; test: human CML cell proliferation inhibition; conditions: 72 hours, Cell Counting Kit-8
Procedure: as §1, §2, §3, §4

[5] = tested on: T315I-Bcr-Abl (Ba/F3); test: Ba/F3 cell proliferation inhibition; conditions: BaF3; 72 hours, Cell Counting Kit-8
Procedure: as §3, with “[…] lymphocyte cells, Parental (Ba/F3) and T315I-Bcr-Abl (Ba/F3)” for “Four types of human CML cells”, “were” for “were each”, “(0.015” for “(0.000256”, “3” for “5”, “[…])” for “μL/well)”
as §4, with “5.0” for “8.0”, “Diego) […].” for “Diego).”

[6] = tested on: Parental (Ba/F3); test: Ba/F3 cell proliferation inhibition; conditions: BaF3; 72 hours, Cell Counting Kit-8
Procedure: as §3, with “[…] lymphocyte cells, Parental (Ba/F3) and T315I-Bcr-Abl (Ba/F3)” for “Four types of human CML cells”, “were” for “were each”, “(0.015” for “(0.000256”, “3” for “5”, “[…])” for “μL/well)”
as §4, with “5.0” for “8.0”, “Diego) […].” for “Diego).”

Compound	GI50 [1] [nM]	GI50 [2] [nM]	GI50 [3] [nM]	GI50 [4] [nM]	GI50 [5] [nM]	GI50 [6] [nM]
Cc1cc(F)c(C(=O)Nc2cc(CN3CCN(CC(F)(F)F)CC3)cc(C(C)(C)C#N)c2)cc1C#Cc1cnc2c(Nc3cnn(C)c3)cccn12 [Example 32, N-(3-(2-cyanopropan-2-yl)-5-((4-(2,2,2-trifluoroethyl)piperazin-1-yl)methyl)phenyl)-2-fluoro-4-methyl-5-((8-((1-methyl-1H-pyrazol-4-yl)amino)imidazo[1,2-a]pyridin-3-yl)ethynyl)benzamide]	< 10	> 100	< 10	> 100	50 to 500	> 5000
Cc1cc(F)c(C(=O)Nc2cc(CN3CCN(C(C)C)CC3)cc(C(C)(C)C#N)c2)cc1C#Cc1cnc2c(Nc3cnn(C)c3)cccn12 [Example 33, N-(3-(2-cyanopropan-2-yl)-5-((4-isopropylpiperazin-1-yl)methyl)phenyl)-2-fluoro-4-methyl-5-((8-((1-methyl-1H-pyrazol-4-yl)amino)imidazo[1,2-a]pyridin-3-yl)ethynyl)benzamide]	< 10	> 100	< 10	100	50 to 500	500 to 5000
Cc1cc(F)c(C(=O)Nc2cc(CN3CCN(S(C)(=O)=O)CC3)cc(C(C)(C)C#N)c2)cc1C#Cc1cnc2c(Nc3cnn(C)c3)cccn12 [Example 34, N-(3-(2-cyanopropan-2-yl)-5-((4-(methylsulfonyl)piperazin-1-yl)methyl)phenyl)-2-fluoro-4-methyl-5-((8-((1-methyl-1H-pyrazol-4-yl)amino)imidazo[1,2-a]pyridin-3-yl)ethynyl)benzamide]	< 10	> 100	< 10	100	50 to 500	> 5000
Cc1cc(F)c(C(=O)Nc2cc(CN3CCN(C)C(=O)C3)cc(C(C)(C)C#N)c2)cc1C#Cc1cnc2c(Nc3cnn(C)c3)cccn12 [Example 35, N-(3-(2-cyanopropan-2-yl)-5-((4-methyl-3-oxopiperazin-1-yl)methyl)phenyl)-2-fluoro-4-methyl-5-((8-((1-methyl-1H-pyrazol-4-yl)amino)imidazo[1,2-a]pyridin-3-yl)ethynyl)benzamide]	< 10	> 100	< 10	> 100	50 to 500	500 to 5000
Cc1cc(F)c(C(=O)Nc2cc(CN3CC(OC(C)C)C3)cc(C(C)(C)C#N)c2)cc1C#Cc1cnc2c(Nc3cnn(C)c3)cccn12 [Example 36, N-(3-(2-cyanopropan-2-yl)-5-((3-isopropoxyazetidin-1-yl)methyl)phenyl)-2-fluoro-4-methyl-5-((8-((1-methyl-1H-pyrazol-4-yl)amino)imidazo[1,2-a]pyridin-3-yl)ethynyl)benzamide]	< 10	100	< 10	100	50 to 500	> 5000
Cc1cc(F)c(C(=O)Nc2cc(Cn3ccnc3)cc(C(C)(C)C#N)c2)cc1C#Cc1cnc2c(Nc3cnn(C)c3)cccn12 [Example 37, N-(3-((1H-imidazol-1-yl)methyl)-5-(2-cyanopropan-2-yl)phenyl)-2-fluoro-4-methyl-5-((8-((1-methyl-1H-pyrazol-4-yl)amino)imidazo[1,2-a]pyridin-3-yl)ethynyl)benzamide]	< 10	100	< 10	100	50 to 500	> 5000
Cc1cc(F)c(C(=O)Nc2cc(Cn3cncn3)cc(C(C)(C)C#N)c2)cc1C#Cc1cnc2c(Nc3cnn(C)c3)cccn12 [Example 38, N-(3-((1H-1,2,4-triazol-1-yl)methyl)-5-(2-cyanopropan-2-yl)phenyl)-2-fluoro-4-methyl-5-((8-((1-methyl-1H-pyrazol-4-yl)amino)imidazo[1,2-a]pyridin-3-yl)ethynyl)benzamide]	< 10	100	< 10	< 10	< 50	> 5000
Cc1cc(F)c(C(=O)Nc2ccc(CN3CCN(C)CC3)c(C(C)(C)C#N)c2)cc1C#Cc1cnc2c(Nc3cnn(C)c3)cccn12 [Example 39, N-(3-(2-cyanopropan-2-yl)-4-((4-methylpiperazin-1-yl)methyl)phenyl)-2-fluoro-4-methyl-5-((8-((1-methyl-1H-pyrazol-4-yl)amino)imidazo[1,2-a]pyridin-3-yl)ethynyl)benzamide]	< 10	100	< 10	100	< 50	> 5000
Cc1cc(F)c(C(=O)Nc2ccc(CN3CCOCC3)c(C(C)(C)C#N)c2)cc1C#Cc1cnc2c(Nc3cnn(C)c3)cccn12 [Example 40, N-(3-(2-cyanopropan-2-yl)-4-(morpholinomethyl)phenyl)-2-fluoro-4-methyl-5-((8-((1-methyl-1H-pyrazol-4-yl)amino)imidazo[1,2-a]pyridin-3-yl)ethynyl)benzamide]	< 10	> 100	< 10	> 100	50 to 500	> 5000
Cc1cc(F)c(C(=O)Nc2ccc(CN3CCC(N(C)C)C3)c(C(C)(C)C#N)c2)cc1C#Cc1cnc2c(Nc3cnn(C)c3)cccn12 (stereo not drawn) [Example 41, N-(3-(2-cyanopropan-2-yl)-4-((3-(dimethylamino)pyrrolidin-1-yl)methyl)phenyl)-2-fluoro-4-methyl-5-((8-((1-methyl-1H-pyrazol-4-yl)amino)imidazo[1,2-a]pyridin-3-yl)ethynyl)benzamide]	< 10	> 100	< 10	> 100	50 to 500	500 to 5000
Cc1cc(F)c(C(=O)Nc2ccc(CN3CCCN(C)CC3)c(C(C)(C)C#N)c2)cc1C#Cc1cnc2c(Nc3cnn(C)c3)cccn12 [Example 42, N-(3-(2-cyanopropan-2-yl)-4-((4-methyl-1,4-diazepan-1-yl)methyl)phenyl)-2-fluoro-4-methyl-5-((8-((1-methyl-1H-pyrazol-4-yl)amino)imidazo[1,2-a]pyridin-3-yl)ethynyl)benzamide]	< 10	> 100	< 10	100	50 to 500	500 to 5000
Cc1cc(F)c(C(=O)Nc2ccc(CN3CCN(CCO)CC3)c(C(C)(C)C#N)c2)cc1C#Cc1cnc2c(Nc3cnn(C)c3)cccn12 [Example 43, N-(3-(2-cyanopropan-2-yl)-4-((4-(2-hydroxyethyl)piperazin-1-yl)methyl)phenyl)-2-fluoro-4-methyl-5-((8-((1-methyl-1H-pyrazol-4-yl)amino)imidazo[1,2-a]pyridin-3-yl)ethynyl)benzamide]	< 10	> 100	< 10	100	50 to 500	500 to 5000
Cc1cc(F)c(C(=O)Nc2ccc(CN3CCN(C)C(=O)C3)c(C(C)(C)C#N)c2)cc1C#Cc1cnc2c(Nc3cnn(C)c3)cccn12 [Example 44, N-(3-(2-cyanopropan-2-yl)-4-((4-methyl-3-oxopiperazin-1-yl)methyl)phenyl)-2-fluoro-4-methyl-5-((8-((1-methyl-1H-pyrazol-4-yl)amino)imidazo[1,2-a]pyridin-3-yl)ethynyl)benzamide]	< 10	> 100	< 10	> 100	50 to 500	500 to 5000
